# US10335372B2, “Compositions with modified nucleases targeted to viral nucleic acids and methods of use for prevention and treatment of viral diseases” (priority 2004, dated 2019)
# “And” between values parts separate entries of the source, which are not always exact repeats. Equal entries are not always repeated. Where two headings read alike, the source gives them in different places.
# Legend:
# [1] = test system: HepG2 intact cells; assay: Cellular uptake of rhodamine-labeled DNase complexes, fluorimeter; format: cell-based, human; settings: 30 min incubation
# Description: (§1) The cellular uptake of bovine DNase I (DNase), DNase-PEG and DNase-PEG-R8 complex is evaluated using the HepG2 cell line (human hepatocarcinoma cells ATCC, No-HB-8065). […] DNase I is labeled with fluorescent rodamine (*) according to the manufacturer's instruction (Pierce, Inc., Rockford, Ill.). Penetration of *DNase-PEG-K-R8 into HepG2 cells is compared to that of *DNase and *DNase-PEG after 30 min of incubation with HepG2 cells in DMEM at 37° C.
# (§2) To maintain the cells the growth medium 199 is used.
# [2] = test system: HepG2 VV-infected cells; format: cell-based, human; settings: 30 min incubation
# Description: as §1, §2
# [3] = test system: double-stranded RNA; settings: physiological salt conditions; double-stranded RNA substrate; cited from earlier work
# [4] = test system: FMD virus; format: cell-based
# [5] = test system: Influenza virus A/Aichi/2/68/H3N2; format: in vivo; settings: mice, single values
# [6] = test system: West Nile virus; assay: Antiviral effect of modified RNase I against West Nile virus in newborn rabbit kidney cells; settings: average of four replicate determinations
# [7] = test system: FMDV of O-type; settings: guinea pig, in vivo
# [8] = test system: dsRNA reovirus; assay: Combination of human RNase I and human RNase III against reovirus in HEP-2 cells; format: cell-based; settings: 200 UA/ml
# Description: The reovirus stock preparation used in this example has a titer of 5.5 log CPD50/0.1 ml.
# [9] = Cellular uptake of fluorescamine-labeled RNase I variants; format: cell-based; settings: fluorescamine label
# [10] = test system: ssRNA corona virus; assay: Antiviral activity of labeled RNase I variants against ssRNA corona virus; format: cell-based
# [11] = test system: Herpes simplex virus, type I (HSV-1); assay: Anti-HSV-1 activity in HEP-2 cells; format: cell-based; settings: for HSV Titer: single values
# [12] = test system: cytomegalovirus (CMV); assay: Anti-CMV activity in HEP-2 cells; settings: for CMV Titer: single values
# [13] = test system: cytomegalovirus; assay: Antiviral activity of modified DNase I against cytomegalovirus in cell culture; settings: 500 UA/ml, 48 h at 37° C.
# [14] = test system: mouse leukemia virus; assay: Treatment of viral lymphatic leukemia in 9-10 month old AKR mice; format: in vivo; settings: 5 kUA/g s.c. every four days
# Description: To study the treatment effect of DNase and TDNase, the experiment is carried out on 9-10 month old AKR mice with manifestations of lymphoid leukemia. A significant increase in the size of lymph nodes, thymus, liver and spleen and high mitotic index in lymphoid tissues is observed in these animals. The treated groups include 24 mice in each while the control group includes 19 mice. Administration of DNase I and TDNase every four days s.c., in a dose of 5,000 KuU/g body weight, results in a decrease of lymphatic tissues and mitotic index to normal levels, and in an increase in longevity of animals. However, a more profound effect is obtained in animals receiving TDNase than DNase, and receiving TDNase-PEG than TDNase, as is shown in Table 25.
# [15] = test system: Vaccinia virus; format: cell-based; settings: 500 KuU/ml, 48 h at 37° C.
# [16] = test system: mouse leukemia virus; assay: Prevention of leukemia development in AKR mice; format: in vivo; settings: 5,000 KuU/g s.c. every second day for a month
# From the text: Leukemia in AKR mice is known to be promoted by mouse leukemia virus. The lymphoid tissues of AKR mice contain mouse leukemia virus, and spontaneously develop leukemia, at the age of 6-8 months.
substance,measurement,setting,value
*DNase,"OD (430 nm), cellular uptake",[1],37
same,"OD (430 nm), cellular uptake",[2],48
"RNase: recombinant / wild-type human RNase I (Examples 22, 30, 31)",enzymatic activity relative to RNase A,[3],about 500 times
same,Titer,[4],7.3; 7.1; 6.8 logTCD50/ml
same,Titer in lungs,[5]; treatment i.n.,4.5 log TCD50 and 4.0 log TCD50 and 4.3 log TCD50
same,Titer in lungs,[5]; treatment i.p.,4.7 log TCD50 and 5.0 log TCD50 and 4.5 log TCD50
same,logTCD50/ml,[6]; 100 UA/ml,7.7 logTCD50/ml
same,logTCD50/ml,[6]; 250 UA/ml,7.0 logTCD50/ml
same,Survived,[7],40
same,duration of preventive effect after a single injection,[7],at least 4 hours
same,animals that developed FMD,[7]; sc,8
same,Survived,[7]; record 2,32
same,Average Titer,[8],4.0 logTCD50/0.1 ml
same,Titer,[8]; single values,3.9 logTCD50/0.1 ml and 4.0 logTCD50/0.1 ml and 4.1 logTCD50/0.1 ml
*RNase I: fluorescamine-labeled human RNase I,Cellular Uptake [OD430 nm],[9],110
same,Average Titer,[10],5.4
DNase,Average Titer,[11]; 10 UA/ml,5.4 logTCD50/ml
same,HSV Titer,[11]; 10 UA/ml,5.4 logTCD50/ml and 5.5 logTCD50/ml and 5.3 logTCD50/ml
same,Average Titer,[11]; 50 UA/ml,5.1 logTCD50/ml
same,HSV Titer,[11]; 50 UA/ml,5.1 logTCD50/ml and 5.0 logTCD50/ml
same,Average Titer,[11]; 100 UA/ml,4.5 logTCD50/ml
same,HSV Titer,[11]; 100 UA/ml,4.6 logTCD50/ml and 4.5 logTCD50/ml and 4.7 logTCD50/ml
same,Average Titer,[11]; 500 UA/ml,3.8 logTCD50/ml
same,HSV Titer,[11]; 500 UA/ml,3.8 logTCD50/ml and 3.9 logTCD50/ml and 3.7 logTCD50/ml
same,Average Titer,[12]; 50 UA/ml,5.1 logTCD50/ml
same,CMV Titer,[12]; 50 UA/ml,5.1 logTCD50/ml and 5.0 logTCD50/ml
same,Average Titer,[12]; 100 UA/ml,4.5 logTCD50/ml
same,CMV Titer,[12]; 100 UA/ml,4.6 logTCD50/ml and 4.5 logTCD50/ml and 4.7 logTCD50/ml
same,Average Titer,[12]; 500 UA/ml,3.8 logTCD50/ml
same,CMV Titer,[12]; 500 UA/ml,3.8 logTCD50/ml and 3.9 logTCD50/ml and 3.7 logTCD50/ml
same,Average Titer,[12]; [0] UA/ml,5.5 logTCD50/ml
same,CMV Titer,[12]; [0] UA/ml,5.4 logTCD50/ml and 5.6 logTCD50/ml and 5.5 logTCD50/ml
same,Average Titer,[13],6.5 logTCD50/0.1 ml
same,Virus Titer,[13]; single values,6.3 logTCD50/0.1 ml and 6.4 logTCD50/0.1 ml and 6.5 logTCD50/0.1 ml
same,Liver,[14],941 ± 33 g
same,Longevity (weeks),[14],16 ± 1.0 weeks
same,Mitotic Index,[14],0.18 ± 0.02
same,Average log TCD50,[15],4.7 log TCD50
same,log TCD50,[15]; single values,4.6 log TCD50 and 4.8 log TCD50
same,development of leukemia,[16],preclude the development of leukemia
